The record followed here is ChEMBL document CHEMBL4334526, “Synthesis of Peptoid-Based Class I-Selective Histone Deacetylase Inhibitors with Chemosensitizing Properties” (J Med Chem, 2019).

The target in test [1] is T1, Histone deacetylase 2 (Homo sapiens, UniProt Q92769). As to the kind of experiment: Inhibition of recombinant human full length C-terminal FLAG-tagged HDAC2 expressed in baculovirus infected Sf9 insect cells at 10 uM using Boc-Lys(epsilon-acetyl)-AMC as substrate incubated for 90 mins by fluorescence assay relative to control.
T1 sequence (Q92769 whole entry, the tested form may be a part): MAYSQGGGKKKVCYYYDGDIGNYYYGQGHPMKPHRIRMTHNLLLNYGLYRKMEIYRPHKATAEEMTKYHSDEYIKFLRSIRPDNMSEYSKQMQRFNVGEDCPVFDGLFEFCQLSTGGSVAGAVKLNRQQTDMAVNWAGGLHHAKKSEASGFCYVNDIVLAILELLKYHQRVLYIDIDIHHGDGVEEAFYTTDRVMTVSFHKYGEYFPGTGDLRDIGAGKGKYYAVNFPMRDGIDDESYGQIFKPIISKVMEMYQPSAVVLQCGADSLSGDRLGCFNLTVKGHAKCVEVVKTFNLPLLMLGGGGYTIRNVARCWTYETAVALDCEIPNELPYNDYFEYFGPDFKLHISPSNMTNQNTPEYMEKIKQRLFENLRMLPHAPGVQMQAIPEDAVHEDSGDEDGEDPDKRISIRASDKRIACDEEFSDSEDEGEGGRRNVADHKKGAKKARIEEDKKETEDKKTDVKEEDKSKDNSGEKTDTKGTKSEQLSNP
The target in test [2] is Histone deacetylase 3/Nuclear receptor corepressor 2 (HDAC3/NCoR2) (Homo sapiens) (UniProt O15379+Q9Y618). Description: Inhibition of human recombinant full length C-terminal His-tagged HDAC3 (1 to 428 residues)/N-terminal GST-tagged NCOR2 (395 to 489 residues) expressed in baculovirus infected Sf9 insect cells at 10 uM using Boc-Lys(epsilon-acetyl)-AMC as substrate incubated for 90 mins by fluorescence assay relative to control.

Test [3] concerns the target T2, Protein deacetylase HDAC6 (Homo sapiens, UniProt Q9UBN7).
T2 sequence (Q9UBN7 whole entry): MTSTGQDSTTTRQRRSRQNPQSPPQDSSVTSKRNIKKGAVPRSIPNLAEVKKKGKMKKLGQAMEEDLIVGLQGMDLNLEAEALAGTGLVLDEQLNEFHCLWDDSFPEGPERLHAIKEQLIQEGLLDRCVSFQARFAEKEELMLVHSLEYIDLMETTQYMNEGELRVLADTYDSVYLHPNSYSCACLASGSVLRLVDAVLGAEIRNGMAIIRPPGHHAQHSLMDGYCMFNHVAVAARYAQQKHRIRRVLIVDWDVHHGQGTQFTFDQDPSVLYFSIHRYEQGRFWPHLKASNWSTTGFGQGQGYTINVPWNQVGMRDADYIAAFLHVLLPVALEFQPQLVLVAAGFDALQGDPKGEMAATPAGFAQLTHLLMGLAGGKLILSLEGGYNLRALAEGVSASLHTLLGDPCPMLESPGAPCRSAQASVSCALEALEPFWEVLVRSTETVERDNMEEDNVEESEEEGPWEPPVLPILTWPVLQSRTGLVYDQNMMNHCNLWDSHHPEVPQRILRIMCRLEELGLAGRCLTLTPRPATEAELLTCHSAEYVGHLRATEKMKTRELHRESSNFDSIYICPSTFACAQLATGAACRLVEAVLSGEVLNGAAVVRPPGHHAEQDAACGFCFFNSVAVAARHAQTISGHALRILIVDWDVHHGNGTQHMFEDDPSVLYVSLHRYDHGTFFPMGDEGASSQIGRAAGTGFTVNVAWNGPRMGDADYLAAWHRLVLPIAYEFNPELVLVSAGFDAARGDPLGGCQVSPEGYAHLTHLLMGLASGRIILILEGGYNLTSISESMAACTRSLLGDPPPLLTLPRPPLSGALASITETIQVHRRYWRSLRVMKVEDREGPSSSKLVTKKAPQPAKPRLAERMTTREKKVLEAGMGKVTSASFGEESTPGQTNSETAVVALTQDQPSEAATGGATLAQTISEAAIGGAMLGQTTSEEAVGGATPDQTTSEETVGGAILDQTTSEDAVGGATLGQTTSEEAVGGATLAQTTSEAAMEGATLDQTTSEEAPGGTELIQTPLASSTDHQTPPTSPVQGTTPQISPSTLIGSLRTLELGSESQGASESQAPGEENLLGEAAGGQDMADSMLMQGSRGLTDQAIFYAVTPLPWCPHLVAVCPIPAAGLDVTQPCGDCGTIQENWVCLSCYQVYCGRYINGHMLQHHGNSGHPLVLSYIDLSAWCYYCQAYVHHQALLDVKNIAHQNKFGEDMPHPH
Description: Inhibition of human full length N-terminal GST-tagged HDAC6 expressed in baculovirus infected Sf9 insect cells ZMAL as substrate incubated for 90 mins by fluorescence assay. The class given is cell-based.

The next test has as its target Histone deacetylase 1 (Homo sapiens, UniProt Q13547). As to the kind of experiment: Inhibition of recombinant human full length C-terminal His/FLAG-tagged HDAC1 expressed in baculovirus infected Sf9 insect cells using ZMAL as substrate incubated for 90 mins by fluorescence assay.
For test [4], the system named is A2780. As to the kind of experiment: Cytotoxicity against human A2780 cells assessed as reduction in cell survival measured after 72 hrs by MTT assay. The class given is functional, cell-based. Particulars: A2780, 72 h. A general note: Tetrazolium dyes change colour on reduction, which living cells bring about.
Test [5] concerns CAL-27. Description: Cytotoxicity against human CAL27 cells assessed as reduction in cell survival measured after 72 hrs by MTT assay. The class given is functional, cell-based. As to conditions: CAL-27, 72 h.
Test [6] addresses Histone deacetylase. As to the kind of experiment: Inhibition of HDAC in human A2780 cells using Boc-Lys(epsilon-Ac)-AMC as substrate preincubated for 18 hrs followed by substrate addition and measured after 3 hrs by fluorescence assay. It counts as cell-based.
Test [7] deals with Histone deacetylase. Description: Inhibition of HDAC in human CAL27 cells using Boc-Lys(epsilon-Ac)-AMC as substrate preincubated for 18 hrs followed by substrate addition and measured after 3 hrs by fluorescence assay. It counts as cell-based.
For test [8], the target named is Histone deacetylase 3/Nuclear receptor corepressor 2 (HDAC3/NCoR2) (Homo sapiens, UniProt O15379). As to the kind of experiment: biochemical. It counts as cell-based, Sf9.
Histone deacetylase 3/Nuclear receptor corepressor 2 (HDAC3/NCoR2), sequence (O15379 whole entry): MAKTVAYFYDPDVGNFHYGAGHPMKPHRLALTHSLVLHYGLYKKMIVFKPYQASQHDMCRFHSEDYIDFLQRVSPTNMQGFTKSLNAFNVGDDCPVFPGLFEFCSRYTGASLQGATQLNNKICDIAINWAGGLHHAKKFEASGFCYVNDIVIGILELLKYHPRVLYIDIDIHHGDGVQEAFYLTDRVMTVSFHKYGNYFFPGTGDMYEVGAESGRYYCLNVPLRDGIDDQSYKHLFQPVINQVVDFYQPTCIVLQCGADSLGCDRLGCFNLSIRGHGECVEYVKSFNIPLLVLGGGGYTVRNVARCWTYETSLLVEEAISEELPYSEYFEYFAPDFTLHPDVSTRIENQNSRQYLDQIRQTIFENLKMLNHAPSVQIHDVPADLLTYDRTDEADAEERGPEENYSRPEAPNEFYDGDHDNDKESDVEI
Histone deacetylase 3/Nuclear receptor corepressor 2 (HDAC3/NCoR2), sequence (Q9Y618 whole entry, further chain): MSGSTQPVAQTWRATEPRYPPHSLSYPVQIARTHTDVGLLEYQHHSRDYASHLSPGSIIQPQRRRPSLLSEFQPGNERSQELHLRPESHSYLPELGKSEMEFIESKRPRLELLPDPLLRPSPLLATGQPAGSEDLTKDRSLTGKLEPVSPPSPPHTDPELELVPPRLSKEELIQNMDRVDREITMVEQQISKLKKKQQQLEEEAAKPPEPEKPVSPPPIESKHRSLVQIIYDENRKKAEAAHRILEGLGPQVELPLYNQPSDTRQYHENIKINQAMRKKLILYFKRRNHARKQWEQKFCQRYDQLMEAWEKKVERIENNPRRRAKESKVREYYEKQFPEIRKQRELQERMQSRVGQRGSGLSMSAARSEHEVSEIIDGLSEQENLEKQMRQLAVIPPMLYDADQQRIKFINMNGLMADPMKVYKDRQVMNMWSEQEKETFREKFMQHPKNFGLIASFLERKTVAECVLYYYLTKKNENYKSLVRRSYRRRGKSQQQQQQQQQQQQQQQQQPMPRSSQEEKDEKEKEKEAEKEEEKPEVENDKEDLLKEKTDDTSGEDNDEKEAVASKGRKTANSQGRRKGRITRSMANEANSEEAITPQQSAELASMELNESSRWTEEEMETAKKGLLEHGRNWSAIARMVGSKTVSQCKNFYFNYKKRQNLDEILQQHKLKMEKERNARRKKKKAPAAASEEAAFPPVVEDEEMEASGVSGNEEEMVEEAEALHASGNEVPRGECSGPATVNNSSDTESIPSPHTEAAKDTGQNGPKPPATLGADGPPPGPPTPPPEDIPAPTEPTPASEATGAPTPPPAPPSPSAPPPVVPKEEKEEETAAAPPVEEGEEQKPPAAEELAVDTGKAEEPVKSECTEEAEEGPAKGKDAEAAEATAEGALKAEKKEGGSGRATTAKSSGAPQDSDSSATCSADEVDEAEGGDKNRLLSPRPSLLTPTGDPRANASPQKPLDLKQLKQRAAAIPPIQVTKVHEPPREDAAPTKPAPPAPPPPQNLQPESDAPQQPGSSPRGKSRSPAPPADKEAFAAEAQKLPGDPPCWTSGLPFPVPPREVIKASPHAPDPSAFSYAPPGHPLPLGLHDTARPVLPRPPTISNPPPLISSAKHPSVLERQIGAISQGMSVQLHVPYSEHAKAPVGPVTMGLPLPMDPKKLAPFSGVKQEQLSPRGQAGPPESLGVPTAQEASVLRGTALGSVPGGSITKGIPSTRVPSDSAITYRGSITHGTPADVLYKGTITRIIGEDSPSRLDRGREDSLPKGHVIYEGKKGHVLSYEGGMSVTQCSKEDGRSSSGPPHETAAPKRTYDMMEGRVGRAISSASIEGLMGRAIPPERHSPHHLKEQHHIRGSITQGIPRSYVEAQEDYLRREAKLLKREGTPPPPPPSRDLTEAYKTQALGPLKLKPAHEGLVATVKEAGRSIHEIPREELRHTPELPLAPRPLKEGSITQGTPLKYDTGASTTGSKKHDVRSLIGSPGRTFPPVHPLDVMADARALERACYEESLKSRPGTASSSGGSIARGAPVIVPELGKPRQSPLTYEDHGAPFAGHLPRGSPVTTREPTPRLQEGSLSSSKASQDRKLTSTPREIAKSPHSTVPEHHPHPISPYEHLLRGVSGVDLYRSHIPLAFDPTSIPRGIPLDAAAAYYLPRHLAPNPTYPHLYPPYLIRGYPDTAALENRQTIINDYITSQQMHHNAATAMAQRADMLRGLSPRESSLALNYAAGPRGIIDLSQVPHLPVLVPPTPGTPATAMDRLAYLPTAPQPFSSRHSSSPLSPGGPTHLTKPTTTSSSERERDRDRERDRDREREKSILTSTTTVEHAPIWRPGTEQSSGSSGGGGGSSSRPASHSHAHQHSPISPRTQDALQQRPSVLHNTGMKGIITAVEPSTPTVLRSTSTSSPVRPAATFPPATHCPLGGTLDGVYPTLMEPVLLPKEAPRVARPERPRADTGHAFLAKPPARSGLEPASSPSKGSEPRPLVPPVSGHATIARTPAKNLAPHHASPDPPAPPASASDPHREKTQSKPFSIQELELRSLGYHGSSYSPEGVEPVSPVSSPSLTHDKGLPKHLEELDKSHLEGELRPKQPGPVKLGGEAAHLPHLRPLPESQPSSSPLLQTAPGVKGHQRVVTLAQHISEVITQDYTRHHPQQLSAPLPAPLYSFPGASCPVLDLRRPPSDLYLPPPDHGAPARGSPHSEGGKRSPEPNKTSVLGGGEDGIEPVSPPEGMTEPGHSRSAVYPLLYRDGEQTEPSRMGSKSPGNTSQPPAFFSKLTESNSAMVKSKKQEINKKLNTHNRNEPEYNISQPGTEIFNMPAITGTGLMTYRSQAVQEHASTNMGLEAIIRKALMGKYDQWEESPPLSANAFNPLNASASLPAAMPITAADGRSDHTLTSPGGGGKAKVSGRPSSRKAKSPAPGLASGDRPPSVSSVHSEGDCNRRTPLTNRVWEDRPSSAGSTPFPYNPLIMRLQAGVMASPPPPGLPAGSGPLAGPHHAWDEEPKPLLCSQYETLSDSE
Description: Inhibition of human recombinant full length C-terminal His-tagged HDAC3 (1 to 428 residues)/N-terminal GST-tagged NCOR2 (395 to 489 residues) expressed in baculovirus infected Sf9 insect cells using Boc-Lys(epsilon-acetyl)-AMC as substrate incubated for 90 mins by fluorescence assay
The target in test [9] is T1, Histone deacetylase 2. Description: Inhibition of recombinant human full length C-terminal FLAG-tagged HDAC2 expressed in baculovirus infected Sf9 insect cells using Boc-Lys(epsilon-acetyl)-AMC as substrate incubated for 90 mins by fluorescence assay. The class given is cell-based.
For test [10], the target named is T1, Histone deacetylase 2. As to the kind of experiment: Inhibition of recombinant human full length C-terminal FLAG-tagged HDAC2 expressed in baculovirus infected Sf9 insect cells at 3.33 uM using Boc-Lys(epsilon-acetyl)-AMC as substrate incubated for 90 mins by fluorescence assay relative to control.
For test [11], the system named is A2780. Description: Cytotoxicity against human A2780 cells assessed as reduction in cell survival up to 100 uM measured after 72 hrs by MTT assay. The class given is functional, cell-based.
Test [12] concerns CAL-27. As to the kind of experiment: Potency index, ratio of vorinostat IC50 to test compound IC50 for cytotoxicity against human CAL27 cells. It counts as functional.

SMILES strings stand for the structures. Activity calls are given as the source filed them. The rule behind the calls is not given here.

Histone deacetylase 1, sequence (Q13547 whole entry): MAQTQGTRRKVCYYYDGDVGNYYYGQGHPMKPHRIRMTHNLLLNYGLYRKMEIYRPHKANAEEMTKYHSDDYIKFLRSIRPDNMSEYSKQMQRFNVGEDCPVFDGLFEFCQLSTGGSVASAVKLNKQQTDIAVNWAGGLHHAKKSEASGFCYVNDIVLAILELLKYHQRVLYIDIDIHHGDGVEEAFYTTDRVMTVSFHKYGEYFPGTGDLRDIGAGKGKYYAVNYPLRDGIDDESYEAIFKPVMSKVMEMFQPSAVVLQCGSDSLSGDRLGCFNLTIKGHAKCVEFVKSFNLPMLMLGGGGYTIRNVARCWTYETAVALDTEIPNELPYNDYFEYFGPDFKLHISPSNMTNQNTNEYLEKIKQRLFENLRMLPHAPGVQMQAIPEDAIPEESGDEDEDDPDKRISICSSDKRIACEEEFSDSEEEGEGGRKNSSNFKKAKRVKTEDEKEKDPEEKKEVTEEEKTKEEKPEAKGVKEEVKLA

Usually inhibition stands for the share of the control response that was lost under treatment. What is called IC50 is the concentration that inhibits the measured activity by half. `COc1ccc(CNC(=O)CN(CCCCCC(=O)Nc2ccccc2N)C(=O)c2cc(C)cc(C)c2)cc1`: the inhibition was 30% on Histone deacetylase 2 [1] and 49% in test [2]. Besides, the IC50 in [3] is greater than 10 µM; at Histone deacetylase 1 it was 2.08 µM; with A2780 [4], 24.6 µM; in the test with CAL-27 [5], 17.4 µM; at Histone deacetylase [6], 3.53 µM; against Histone deacetylase [7], 4.81 µM.
As for `Cc1cc(C)cc(C(=O)N(CC(=O)NCc2ccccc2)Cc2ccc(C(=O)Nc3cc(F)ccc3N)cc2)c1`, the inhibition on Histone deacetylase 2 [1] was found to be 25%; in test [2], 23%. The IC50 was greater than 10 µM in test [3]; 0.277 µM on Histone deacetylase 1; 5.4 µM in the test on A2780 [4]; 5.72 µM in the test with CAL-27 [5]; 1.43 µM at Histone deacetylase [6]; 0.47 µM on Histone deacetylase [7].
As for `Cc1ccc(CNC(=O)CN(CCCCCC(=O)Nc2ccccc2N)C(=O)c2cc(C)cc(C)c2)cc1`, the IC50 is greater than 10 µM in test [3]; 0.478 µM in test [8]; 5.03 µM at Histone deacetylase 2 [9]; 1.1 µM on Histone deacetylase 1; 9.8 µM in the test on A2780 [4]; 18.2 µM in the test with CAL-27 [5]. For the same compound, the concentration for half-maximal inhibition (IC50) on Histone deacetylase [6] is 4.48 µM; at Histone deacetylase [7] it was 4.57 µM.
As for `Nc1ccccc1NC(=O)CCCCCN(CC(=O)NC1CCCCC1)C(=O)c1ccccc1`, the IC50 in test [3] was greater than 10 µM; in [8], 0.858 µM; at Histone deacetylase 2 [9] it was 5.95 µM; at Histone deacetylase 1 it was 5.46 µM; with A2780 [4], 181 µM; in the test with CAL-27 [5], 30.9 µM. In addition, the half-inhibitory concentration (IC50) on Histone deacetylase [6] came to 43.6 µM; against Histone deacetylase [7], 21.9 µM.
As for `CN(C)c1ccc(C(=O)N(CCCCCC(=O)Nc2cc(F)ccc2N)CC(=O)NCc2ccccc2)cc1`, the IC50 in test [3] is greater than 10 µM; in [8] it was 0.369 µM; at Histone deacetylase 2 [9], 3.06 µM; on Histone deacetylase 1 it was 1.98 µM; in the test with A2780 [4], 25.9 µM; in the test on CAL-27 [5], 20.2 µM. For the same compound, the results for the IC50 against Histone deacetylase [6] and on Histone deacetylase [7] were 13.4 µM and 6.82 µM, respectively.
`Nc1ccccc1NC(=O)CCCCCN(CC(=O)NCc1ccccc1)C(=O)c1cccc2ccccc12`: the IC50 in test [3] was greater than 10 µM; in test [8], 0.163 µM; at Histone deacetylase 2 [9] it was 1.9 µM; at Histone deacetylase 1 it was 1.67 µM; in the test on A2780 [4] it was 22.8 µM; with CAL-27 [5] it was 11 µM. Moreover, the IC50 against Histone deacetylase [6] came to 10.2 µM; at Histone deacetylase [7], 4.13 µM.
Regarding `Nc1ccccc1NC(=O)c1ccc(CN(CC(=O)NCc2ccccc2)C(=O)c2cccnc2)cc1`, the IC50 in test [3] was greater than 10 µM; in test [8], 0.878 µM; on Histone deacetylase 2 [9], 0.786 µM; at Histone deacetylase 1, 0.103 µM; with A2780 [4] it was 8.9 µM; in the test with CAL-27 [5], 11.2 µM. In addition, the figures for the IC50 against Histone deacetylase [6] and at Histone deacetylase [7] were 1.06 µM and 1.01 µM, respectively.
In the case of `Cc1cc(C)cc(CNC(=O)CN(CCCCCC(=O)Nc2ccccc2N)C(=O)c2cc(C)cc(C)c2)c1`, the IC50 in [3] was greater than 10 µM; in test [8], 0.583 µM; on Histone deacetylase 2 [9], 4.1 µM; at Histone deacetylase 1, 0.484 µM; in the test with A2780 [4], 5.1 µM; in the test with CAL-27 [5], 19.3 µM. The IC50 on Histone deacetylase [6] was found to be 3.17 µM; on Histone deacetylase [7] it was 3.15 µM.
On to `Cc1cc(C)cc(C(=O)N(CCCCCC(=O)Nc2ccccc2N)CC(=O)NCc2ccccc2)c1`, for which the IC50 in test [3] is greater than 10 µM; in [8], 0.25 µM; on Histone deacetylase 2 [9], 1.6 µM; at Histone deacetylase 1, 1.16 µM; in the test with A2780 [4], 20.9 µM; with CAL-27 [5], 13.7 µM. Besides, the values for the IC50 at Histone deacetylase [6] and on Histone deacetylase [7] were 8.71 µM and 3.93 µM, respectively.
Turning to `Nc1ccccc1NC(=O)CCCCCN(CC(=O)NC1CCCCC1)C(=O)c1cccc2ccccc12`, the IC50 in [3] is greater than 10 µM; in test [8], 0.646 µM; at Histone deacetylase 2 [9] it was 5.38 µM; on Histone deacetylase 1 it was 6.56 µM; in the test on A2780 [4], 18.1 µM; in the test on CAL-27 [5], 24.9 µM. In addition, the IC50 against Histone deacetylase [6] came out at 33.1 µM; against Histone deacetylase [7] it was 13 µM.
Turning to `Cc1cc(C)cc(C(=O)N(CCCCCC(=O)Nc2ccccc2N)CC(=O)NC2CCCCC2)c1`, the IC50 in test [3] was greater than 10 µM; in test [8] it was 0.481 µM; on Histone deacetylase 2 [9], 6.66 µM; at Histone deacetylase 1 it was 5.55 µM; in the test with A2780 [4], 42 µM; with CAL-27 [5] it was 17.5 µM. For the same compound, the IC50 on Histone deacetylase [6] came to 22.8 µM; against Histone deacetylase [7], 12.1 µM.
With `CN(C)c1ccc(C(=O)N(CC(=O)NCc2ccccc2)Cc2ccc(C(=O)Nc3cc(-c4ccccc4)ccc3N)cc2)cc1`, the inhibition at Histone deacetylase 2 [10] was 36%; in test [2], less than 15%. The half-maximal inhibitory concentration (IC50) in test [3] was greater than 10 µM; in test [8], greater than 10 µM; on Histone deacetylase 1 it was 0.039 µM; in the test with CAL-27 [5], 11.1 µM; against Histone deacetylase [6] it was 2.62 µM; against Histone deacetylase [7], 0.85 µM. Also, in the test on A2780 [11], the outcome was inactive.
For `CN(C)c1ccc(C(=O)N(CCCCCC(=O)Nc2ccccc2N)CC(=O)NCc2ccccc2)cc1`, the IC50 in [3] was greater than 10 µM; in test [8], 0.312 µM; on Histone deacetylase 2 [9], 1.24 µM; on Histone deacetylase 1, 1.58 µM; with A2780 [4], 18.5 µM; in the test with CAL-27 [5], 16 µM. Also, the IC50 against Histone deacetylase [6] was 9.25 µM; against Histone deacetylase [7], 4.33 µM.
In the case of `Cc1cc(C)cc(C(=O)N(CC(=O)NCc2ccccc2)Cc2ccc(C(=O)Nc3ccccc3N)cc2)c1`, the inhibition in [2] came out at 32%. In addition, the IC50 in [3] was greater than 10 µM; on Histone deacetylase 2 [9] it was 0.485 µM; at Histone deacetylase 1, 0.062 µM; with A2780 [4], 2.8 µM; in the test on CAL-27 [5], 1.6 µM; against Histone deacetylase [6], 0.81 µM. In addition, the IC50 on Histone deacetylase [7] is 0.18 µM. Also, in the test with CAL-27 [12], the “Ratio IC50” value is recorded as 1.7.
